Measurements: PubChem BioAssay AID330 (DTP/NCI, 2004)
Several values for one entry are separate records, joined by “and”; a condition that tells them apart may be missing. Identical values can stand only once. Toxic doses and inconclusive results are not listed. The calls were made as follows: active = survival T/C of 150% or more; inactive = T/C below 125% in these data. Peptide text beside a SMILES is read from it. * marks the point of attachment. Cbz = O=C(OCc1ccccc1)*

Tested on: P388 leukemia ip, CD2F1 mice, survival T/C
Assay: NCI In Vivo Anticancer Drug Screen. Data for tumor model P388 Leukemia (intraperitoneal) in CD2F1 (CDF1) mice
Details: endpoint: median survival time, higher = longer survival
Procedure, shortened: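 Mice carrying the transplanted tumor received test compound or vehicle. Survival was recorded in each group, and the value is the treated-group measurement divided by that of the vehicle-treated control group.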

[1] = dose: 60.0 mg/kg/injection, schedule: Q01DX005 (ip), vehicle: Klucel (hydroxypropylcellulose) (HPC)
[2] = dose: 120.0 mg/kg/injection, schedule: Q01DX005 (ip), vehicle: Klucel (hydroxypropylcellulose) (HPC)
[3] = dose: 240.0 mg/kg/injection, schedule: Q01DX005 (ip), vehicle: Klucel (hydroxypropylcellulose) (HPC)
[4] = dose: 100.0 mg/kg/injection, schedule: Q01DX009 (ip), vehicle: saline with Tween-80
[5] = dose: 200.0 mg/kg/injection, schedule: Q01DX009 (ip), vehicle: saline with Tween-80
[6] = dose: 25.0 mg/kg/injection, schedule: Q01DX009 (ip), vehicle: saline with Tween-80
[7] = dose: 50.0 mg/kg/injection, schedule: Q01DX009 (ip), vehicle: saline with Tween-80
[8] = dose: 50.0 mg/kg/injection, schedule: Q01DX005 (ip), vehicle: Klucel (hydroxypropylcellulose) (HPC)
[9] = dose: 100.0 mg/kg/injection, schedule: Q01DX005 (ip), vehicle: Klucel (hydroxypropylcellulose) (HPC)
[10] = dose: 50.0 mg/kg/injection, schedule: Q01DX009 (ip), vehicle: saline

Measured: T/C

COc1ccc2nc3ccccc3c(NCCCCCCNc3c4ccccc4nc4ccc(OC)cc34)c2c1
inactive: dose: 0.62 mg/kg/injection, schedule: Q## X009 (ip), vehicle: lactic acid 108 % of control | dose: 0.63 mg/kg/injection, schedule: Q01DX009 (ip), vehicle: other 100 % of control | dose: 1.25 mg/kg/injection, schedule: Q01DX009 (ip), vehicle: other 107 % of control | dose: 1.25 mg/kg/injection, schedule: Q## X009 (ip), vehicle: lactic acid 111 % of control | dose: 2.5 mg/kg/injection, schedule: Q01DX009 (ip), vehicle: other 100 % of control | dose: 2.5 mg/kg/injection, schedule: Q## X009 (ip), vehicle: lactic acid 119 % of control | dose: 3.75 mg/kg/injection, schedule: Q01DX009 (ip), vehicle: other 109 % of control | dose: 5.0 mg/kg/injection, schedule: Q01DX009 (ip), vehicle: other 116 % of control | dose: 5.0 mg/kg/injection, schedule: Q## X009 (ip), vehicle: lactic acid 113 % of control

OCC1CCC(O)C=C2CCCC21 (stereo unspecified)
inactive: [1] 94 % of control | [2] 103 % of control | [3] 105 % of control

C=C[C@@]1(C)CC(=O)[C@]2(O)[C@@]3(C)[C@@H](O)CCC(C)(C)[C@@H]3[C@H](O)[C@@H](OC(C)=O)[C@@]2(C)O1
inactive: dose: 6.25 mg/kg/injection, schedule: Q01DX005 (ip), vehicle: saline + Tween-80 + alcohol 95 % of control | dose: 12.5 mg/kg/injection, schedule: Q01DX005 (ip), vehicle: saline + Tween-80 + alcohol 102 % of control

C=CC(=C)CCC=C(C)C
inactive: [4] 104 % of control | dose: 100.0 mg/kg/injection, schedule: Q04DX003 (ip), vehicle: saline with Tween-80 110 % of control | [5] 113 % of control | dose: 200.0 mg/kg/injection, schedule: Q04DX003 (ip), vehicle: saline with Tween-80 110 % of control | dose: 400.0 mg/kg/injection, schedule: Q04DX003 (ip), vehicle: saline with Tween-80 110 % of control

O=C(COc1ccc(Cl)cc1)OCCN1CCCCCC1
inactive: dose: 60.0 mg/kg/injection, schedule: Q01DX005 (ip), vehicle: saline 109 % of control | dose: 120.0 mg/kg/injection, schedule: Q01DX005 (ip), vehicle: saline 110 % of control | dose: 240.0 mg/kg/injection, schedule: Q01DX005 (ip), vehicle: saline 100 % of control

COc1cccc2c1C(=O)c1c(O)c3c(c(O)c1C2=O)CC(O)(C(O)CO)CC3OC1CC(N2CCOCC2C#N)C(O)C(C)O1 (stereo unspecified)
inactive: dose: 0.8 mg/kg/injection, schedule: Q04DX003 (ip), vehicle: water 89 % of control | dose: 6.25 micrograms/kg/injection, schedule: Q04DX003 (ip), vehicle: water 101 % of control | dose: 12.5 micrograms/kg/injection, schedule: Q04DX003 (ip), vehicle: water 107 % of control and 113 % of control | dose: 25.0 micrograms/kg/injection, schedule: Q04DX003 (ip), vehicle: water 106 % of control and 117 % of control | dose: 50.0 micrograms/kg/injection, schedule: Q04DX003 (ip), vehicle: water 119 % of control and 120 % of control | dose: 100.0 micrograms/kg/injection, schedule: Q04DX003 (ip), vehicle: water 124 % of control | dose: 200.0 micrograms/kg/injection, schedule: Q04DX003 (ip), vehicle: water 124 % of control
active: dose: 0.2 mg/kg/injection, schedule: Q04DX003 (ip), vehicle: water 176 % of control

CC(C)CC(N)CO (stereo unspecified)
inactive: dose: 50.0 mg/kg/injection, schedule: Q01DX005 (ip), vehicle: suspension in saline 105 % of control | dose: 100.0 mg/kg/injection, schedule: Q01DX005 (ip), vehicle: suspension in saline 106 % of control | dose: 200.0 mg/kg/injection, schedule: Q01DX005 (ip), vehicle: suspension in saline 106 % of control

CCCCCCC(/C=C/c1ccc(Cl)c(Cl)c1)=N\Nc1ccc(Cl)c(Cl)c1
inactive: [6] 90 % of control | [7] 88 % of control and 93 % of control | [4] 94 % of control | [5] 87 % of control

CC(=O)n1oc2ccc(Br)cc2c1=O
inactive: [8] 100 % of control | [9] 95 % of control | dose: 200.0 mg/kg/injection, schedule: Q01DX005 (ip), vehicle: Klucel (hydroxypropylcellulose) (HPC) 100 % of control

CN(CCc1ccccn1)c1ccc2c(c1)Cc1ccccc1-2
inactive: [8] 98 % of control | [9] 93 % of control

O=C(O)C(CO)NC(=O)C1CCCN1C(=O)OCc1ccccc1 (stereo not drawn) (Cbz-Pro-Ser-OH; configuration not given here)
inactive: dose: 50.0 mg/kg/injection, schedule: Q01DX005 (ip), vehicle: saline 96 % of control | dose: 100.0 mg/kg/injection, schedule: Q01DX005 (ip), vehicle: saline 93 % of control

O=C(O)Cc1cn2cc(Br)cc(Br)c2n1
inactive: dose: 100.0 mg/kg/injection, schedule: Q01DX001 (ip), vehicle: saline with Tween-80 109 % of control | dose: 200.0 mg/kg/injection, schedule: Q01DX001 (ip), vehicle: saline with Tween-80 97 % of control | dose: 400.0 mg/kg/injection, schedule: Q01DX001 (ip), vehicle: saline with Tween-80 98 % of control

COc1c2occc2c(NC(=O)CI)c2ccc(=O)oc12
inactive: dose: 25.0 mg/kg/injection, schedule: Q04DX002 (ip), vehicle: saline with Tween-80 102 % of control | dose: 50.0 mg/kg/injection, schedule: Q04DX002 (ip), vehicle: saline with Tween-80 101 % of control | dose: 100.0 mg/kg/injection, schedule: Q04DX002 (ip), vehicle: saline with Tween-80 101 % of control

C[N+](C)(CCCCCC[N+](C)(C)C1c2ccccc2-c2ccccc21)C1c2ccccc2-c2ccccc21
inactive: dose: 0.13 mg/kg/injection, schedule: Q01DX009 (ip), vehicle: saline 105 % of control | dose: 0.25 mg/kg/injection, schedule: Q01DX009 (ip), vehicle: saline 105 % of control | dose: 0.5 mg/kg/injection, schedule: Q01DX009 (ip), vehicle: saline 102 % of control | dose: 1.0 mg/kg/injection, schedule: Q01DX009 (ip), vehicle: saline 101 % of control

O=C(O)CC1(C(=O)O)CCC(O)CC1 (stereo unspecified)
inactive: [10] 100 % of control | dose: 100.0 mg/kg/injection, schedule: Q01DX009 (ip), vehicle: saline 107 % of control | dose: 200.0 mg/kg/injection, schedule: Q01DX009 (ip), vehicle: saline 100 % of control

CCOC(=O)c1nnn(Cc2ccccc2)c1N
inactive: dose: 12.5 mg/kg/injection, schedule: Q01DX009 (ip), vehicle: saline with Tween-80 104 % of control | [6] 100 % of control | [7] 100 % of control | [4] 104 % of control

Brc1cccc2c(SCCCCCCSc3c4ccccc4nc4c(Br)cccc34)c3ccccc3nc12
inactive: [1] 93 % of control | [2] 92 % of control | [3] 93 % of control

Cc1ccc(NC(=O)Oc2cc(C)c(Br)c(C)c2)cc1[N+](=O)[O-]
inactive: dose: 12.5 mg/kg/injection, schedule: Q01DX009 (ip), vehicle: saline 95 % of control | dose: 25.0 mg/kg/injection, schedule: Q01DX009 (ip), vehicle: saline 97 % of control | dose: 50.0 mg/kg/injection, schedule: Q01DX009 (ip), vehicle: saline + alcohol 98 % of control | [10] 101 % of control | dose: 200.0 mg/kg/injection, schedule: Q01DX009 (ip), vehicle: saline + alcohol 100 % of control

O=C(N/C(=C\c1ccccc1)C(=O)N1CCN(c2ccccc2)CC1)c1ccccc1
inactive: dose: 50.0 mg/kg/injection, schedule: Q01DX005 (ip), vehicle: saline with Tween-80 98 % of control | dose: 100.0 mg/kg/injection, schedule: Q01DX005 (ip), vehicle: saline with Tween-80 98 % of control | dose: 200.0 mg/kg/injection, schedule: Q01DX005 (ip), vehicle: saline with Tween-80 86 % of control

CC12COC3(C)CCC(C)(OC1)N23 (stereo unspecified)
inactive: [7] 100 % of control | [4] 97 % of control | [5] 103 % of control

N#Cc1cnc2n(c1=N)CCCCC2
inactive: dose: 25.0 mg/kg/injection, schedule: Q04DX003 (ip), vehicle: Klucel (hydroxypropylcellulose) (HPC) 102 % of control | dose: 50.0 mg/kg/injection, schedule: Q04DX003 (ip), vehicle: Klucel (hydroxypropylcellulose) (HPC) 94 % of control | dose: 100.0 mg/kg/injection, schedule: Q04DX003 (ip), vehicle: Klucel (hydroxypropylcellulose) (HPC) 102 % of control

CN(C)c1ccc(C=Nc2cccc(Cl)c2)cc1
inactive: dose: 50.0 mg/kg/injection, schedule: Q01DX009 (ip), vehicle: Klucel (hydroxypropylcellulose) (HPC) 108 % of control | dose: 100.0 mg/kg/injection, schedule: Q01DX009 (ip), vehicle: Klucel (hydroxypropylcellulose) (HPC) 98 % of control | dose: 200.0 mg/kg/injection, schedule: Q01DX009 (ip), vehicle: Klucel (hydroxypropylcellulose) (HPC) 103 % of control
